From US20260041747A1, “T CELL EPITOPES ASSOCIATED WITH TYPE 1 DIABETES” (Repertoire Immune Medicines, Inc., priority 2022, published 2026) come the findings set out here.

Experiment [1] deals with PBMC-derived CD8+ T cells from T1D patients. As to the kind of experiment: Binding of HLA-A*02:01 barcoded pMHC tetramer library to PBMC-derived CD8+ T cells of T1D patients and healthy donors. More on the design: species or system human. The note with it: for Normalized T1D prevalence: average number of times the epitope in the pMHC tetramer library was bound by cognate TCR in the T1D cohort, 8 T1D patients, 1 nM per tetramer; for % Presence in T1D samples: percentage of T1D samples in which the epitope response was observed. An excerpt:
This example describes assessment of peptide binding to peripheral T cells from 8 short clinical duration T1D patients and 21 healthy donors who are HLA-matched without a history of diabetes, thereby to identify T1D-associated, HLA-A*02:01-restricted T cell epitopes.
Briefly, in the high-throughput screen described in Example 1, a library of HLA-A*02:01 oligo-barcoded pMHC tetramers was created as described in Francis et al., (2022) Sci Immunol 21:eabk3070. This tetramer library was composed of individual pMHCs representing hundreds of different epitopes identified in Example 1. CD8+ T cells were derived from frozen peripheral blood mononuclear cells (PBMCs) of human donors. CD8+ T cells were enriched via magnetic-activated cell separation from thawed PBMCs via commercially available negative enrichment kits (Miltenyi). Resulting enriched CD8+ T cells were counted and a standard input of 1 million CD8+ T cells per subject were then stained with tetramer libraries at final concentration of 1 nM per pMHC tetramer, in the presence of 2 mg/mL salmon sperm DNA in PBS with 0.5% BSA solution for 20 min. Stained cells were barcoded by commercially available anti-TCR antibody-derived tags (ADT, clone IP26, Biolegend). Tetramer bound cells were then labeled with phycoerythrin (PE) conjugated anti-DKDDDDK-Flag antibody (Biolegend) followed by dead cell discrimination using 7-amino-actinomycin D (7-AAD). Live, tetramer positive cells were sorted using a Sony MA900 Sorter. Following sorting, tetramer positive cells were single-cell sequenced using commercially available systems and protocols from 10× Genomics. Post-sequencing cells were demultiplexed and passed through standard quality control workflows (removal of duplicates, damaged cells, empty droplets, etc.) as described in Francis et al., (2022) Sci Immunol 21:eabk3070. Demultiplexed, tetramer positive cells were scored for pMHC-TCR interactions as described in Francis et al., (2022) Sci Immunol 21:eabk3070. Non-control pMHC-TCR putative binders passing quality control filters and scoring were used for analysis. The resulting pMHC-TCR matrix reactivity map was analyzed by abundance for “normalized T1D prevalence”, “relative enrichment”, and “% presence in T1D samples.” Normalized prevalence was defined as the average number of times an epitope in the pMHC tetramer library was bound by cognate TCR in the T1D cohort. […] Finally, for an epitope to be considered of value, it must pass prevalence and enrichment thresholds and have cognate T cells present in at least 75 percent of T1D subjects.

The next experiment deals with recombinant TCRs (rTCRs). As to the kind of experiment: Activation (CD69+) of J76-CD8-NFAT-GFP cells expressing recombinant TCRs by peptide-loaded HLA-A*02:01+ T2 cells. The experiment is classed as cell-based, human. The note with it: 50 μM peptide, T2 cells 1:1, 16 hours. An excerpt: This example describes functional validation of the T cell epitopes described in Examples 2 and 3, and their cognate TCRs, by assessing the ability of certain T cell epitopes, when presented by APCs that express HLA-A*02:01, to activate an immortalized T cell line expressing recombinant TCRs sequenced from the T cells of T1D patients and healthy donors. […] The relevance of certain identified T1D associated epitopes was evidenced by binding and activation of cognate TCRs in primary T cells or recombinant T cell lines.
(§1) Briefly, native paired alpha and beta TCR sequences identified from human tissues, such as PBMC or islet-derived CD8 T cells, were cloned into the pLVX-EFla lentiviral backbone (Takara) as a bicistronic TCRB-T2A-TCRa vector. TCRa/B/Jurkat J76 cells, which were engineered to express CD8 and a nuclear factor of activated T cells (NFAT)-green fluorescent protein (GFP) reporter (referred to as J76-CD8-NFAT-GFP), were transduced with lentiviral vectors produced from HEK 293T cells. To assess functional activity of the recombinant TCRs (rTCRs), J76-CD8-NFAT-GFP expressing recombinant TCRs were incubated at a 1:1 ratio with the HLA-A*02:01^+ T2(174×CEM.T2) (ATCC CRL-1991) lymphoblastic cell line, with a final concentration of 50 μM of cognate peptide (Vivitide, >95% pure) or 0.5% dimethylsulfoxide (DMSO, vehicle). Cell mixtures were incubated at 37° C., 5% CO2 for 16 hours. Activation of the T cells was assessed by flow cytometry using anti-CD3-PE-Cy7 (Clone UCHT1) and anti-CD69-APC (Clone FN50) antibodies, and analyzed using the Satorius iQue Screener Plus and FlowJo v10. Activation of rTCR-expressing cell lines was determined by comparing the mean percentage of CD69^+ cells out of CD3^+ cells, in cell mixtures with cognate peptide-loaded T2 cells, with the mean percentage in cell mixtures with no peptide (DMSO control).

The test system of experiment [2] is pancreatic islet infiltrating T cells. As to the kind of experiment: Binding of pMHC library to polyclonally expanded islet-derived T cell lines from T1D organ donors. More on the design: species or system human. The note with it: single high abundance TCR. An excerpt:
This example describes assessment of peptides that bind to T cell lines derived from living pancreatic islets of recently deceased pancreatic organ donors with T1D, thereby to identify T1D-associated, HLA-A*02:01-restricted T cell epitopes directly associated with islet infiltrating T cells. This assay, using specialized post-mortem processing of difficult-to-obtain pancreas biopsy, further confirmed the association of selected epitopes with T1D, given that disease-associated T cell epitopes generally result in infiltration of T cells that can cause inflammation and subsequent beta cell cytotoxicity in the pancreas.
Briefly, pancreatic slices were sourced from individuals with suspected or confirmed Type I diabetes diagnosis at the time of death by the Network of Pancreatic Organ Donors. Within in 72 hours of death, pancreatic islets were macrodissected from the slices under sterile conditions. These islets were cultured with a cocktail of cytokines and immune stimulating factors that allow T cell expansion independent of cognate TCR-pMHC interaction, using the polyclonal T cell expansion method described in Babon et al., (2016) Nat Med 22:1482-1487. The resulting T cell lines were then screened against pMHC libraries described in Example 2.
This epitope bound to a single, high abundance TCR derived from an individual that was diagnosed with Type I diabetes 4 months prior to death. […]

The next experiment has as its system islet-derived rTCR. As to the kind of experiment: Peptide dose-response of islet-derived rTCR expressed in Jurkat T cells. The experiment is classed as cell-based, human. The following applies: Jurkat T cells expressing islet-derived rTCR, pulsed with 0.001 to 100 μM peptide; approximate affinity of pMHC-rTCR interaction; read-out: EC50 (half maximal effective concentration). The method, then: FIG. 1 depicts a dose-response for the islet-derived rTCR described in Table 5 when pulsed with a range of cognate peptide from 0.001 to 100 μM.
This epitope bound to a single, high abundance TCR derived from an individual that was diagnosed with Type I diabetes 4 months prior to death. […] The EC50 value represents an approximate affinity for the pMHC-rTCR[…] interaction.
as §1, with “To assess functional activity of the recombinant TCRs (rTCRs), J76-CD8-NFAT-GFP expressing recombinant TCRs were incubated at a 1:1 ratio with the HLA-A*02:01^+ T2(174×CEM.T2) (ATCC CRL-1991) lymphoblastic cell line, with a final concentration of 50 μM of cognate peptide (Vivitide, >95% pure) or 0.5% dimethylsulfoxide (DMSO, vehicle). Cell mixtures were incubated at 37° C., 5% CO2 for 16 hours.” left out

As for VLVNKVLLV, in experiment [1], the “Normalized T1D prevalence” value is reported as 1.69 and the “% Presence in T1D samples” value is 87.5%. Moreover, in the experiment on recombinant TCRs (rTCRs) (TCR_10, source PBMC), the “Mean % CD69+ T cells with cognate peptide” value (from here on “Mean % CD69+ T cells”) is on record as 29.45%.

For the sequence FSESILTYV, in experiment [1], the “Normalized T1D prevalence” value was 2.88 and the “% Presence in T1D samples” value stood at 87.5%.

With TLSWALYEL, the “Normalized T1D prevalence” value in experiment [1] was 2.50. The “% Presence in T1D samples” value in experiment [1] was determined as 100%. The “Mean % CD69+ T cells” value in the experiment on recombinant TCRs (rTCRs) (TCR_01, source PBMC) is reported as 59.8%; with recombinant TCRs (rTCRs) (TCR_02, source PBMC) it was 58%; in the experiment with recombinant TCRs (rTCRs) (TCR_04, source PBMC), 48%; in the experiment with recombinant TCRs (rTCRs) (TCR_06, source PBMC), 39%; in the experiment with recombinant TCRs (rTCRs) (TCR_07, source PBMC), 33.55%; in the experiment with recombinant TCRs (rTCRs) (TCR_14, source PBMC), 15.45%.

On to YAPWELLSV, for which the “Normalized T1D prevalence” value in experiment [1] is reported as 2.44. The “% Presence in T1D samples” value in experiment [1] turned out to be 87.5%. The “Mean % CD69+ T cells” value came out at 38.4% in the experiment on recombinant TCRs (rTCRs) (TCR_05, source PBMC) and 17.55% in the experiment on recombinant TCRs (rTCRs) (TCR_13, source PBMC).

Take FLSWALNSC: in experiment [1], the “Normalized T1D prevalence” value was found to be 2.50 and the “% Presence in T1D samples” value was found to be 100%.

With NLYTFVLKV, in experiment [1], the “Normalized T1D prevalence” value stood at 2.56 and the “% Presence in T1D samples” value is given as 87.5%.

On to LMSGILGLA, for which, in experiment [1], the “Normalized T1D prevalence” value came to 2.44 and the “% Presence in T1D samples” value was found to be 87.5%.

In the case of FVAGLFVML, in experiment [1], the “Normalized T1D prevalence” value is given as 1.88 and the “% Presence in T1D samples” value was determined as 87.5%.

For the sequence TLDIFLEIV, the “Mean % CD69+ T cells” value in the experiment on recombinant TCRs (rTCRs) (TCR_17, source PBMC) was determined as 36.7%.

For the sequence QLLFSLPKL, the “Mean % CD69+ T cells” value with recombinant TCRs (rTCRs) (TCR_16, source PBMC) came to 61.55%.

As to GQWAGGAYA, in experiment [1], the “Normalized T1D prevalence” value stood at 1.81 and the “% Presence in T1D samples” value came to 87.5%.

In the case of KLNWDLHTA, in experiment [1], the “Normalized T1D prevalence” value was 3.63 and the “% Presence in T1D samples” value was determined as 87.5%.

KLSPSQHLA: in experiment [1], the “Normalized T1D prevalence” value was 1.06 and the “% Presence in T1D samples” value is 87.5%.

On to QALDVGWLV, for which, in experiment [1], the “Normalized T1D prevalence” value was determined as 1.19 and the “% Presence in T1D samples” value amounted to 87.5%.

For the sequence ALMGQAAGV, in experiment [1], the “Normalized T1D prevalence” value is listed as 1.50 and the “% Presence in T1D samples” value is 87.5%.

Consider VIGDWLNLI, for which the “Normalized T1D prevalence” value in experiment [1] came out at 2.188. Besides, in experiment [1], the “% Presence in T1D samples” value came out at 75%. The “Binding to islet-derived T cells from T1D patients” value in experiment [2] is “identified as binding”. Besides, the EC50 in the experiment on islet-derived rTCR turned out to be 2200 nM. The “Mean % CD69+ T cells” value in the experiment with recombinant TCRs (rTCRs) (TCR_09, source PBMC) worked out at 26.15%; in the experiment with recombinant TCRs (rTCRs) (TCR_18, source PBMC), 26.15%; in the experiment with recombinant TCRs (rTCRs) (TCR_19, source islet), 28.8%.

Take LLPPRVLPA: the “Mean % CD69+ T cells” value in the experiment on recombinant TCRs (rTCRs) (TCR_15, source PBMC) is on record as 32.25%.

ALAWAVWLA: in experiment [1], the “Normalized T1D prevalence” value was found to be 1.94 and the “% Presence in T1D samples” value is reported as 87.5%.

For the sequence TLSKPSPMPV, in experiment [1], the “Normalized T1D prevalence” value amounted to 1.06 and the “% Presence in T1D samples” value is on record as 87.5%.

Regarding MVWESGCVV, in experiment [1], the “Normalized T1D prevalence” value was found to be 16.313 and the “% Presence in T1D samples” value is 100%.

Regarding LQFRGSMLA, in experiment [1], the “Normalized T1D prevalence” value worked out at 2.00 and the “% Presence in T1D samples” value is 100%.

NLLYPVPLV: the “Normalized T1D prevalence” value in experiment [1] is 2.81. In experiment [1], the “% Presence in T1D samples” value was determined as 87.5%. Besides, the “Mean % CD69+ T cells” value in the experiment on recombinant TCRs (rTCRs) (TCR_03, source PBMC) amounted to 49.75%; in the experiment with recombinant TCRs (rTCRs) (TCR_08, source PBMC) it was 27.25%; in the experiment on recombinant TCRs (rTCRs) (TCR_11, source PBMC), 21.65%.

With TLMAVIGGL, in experiment [1], the “Normalized T1D prevalence” value came out at 3.63 and the “% Presence in T1D samples” value turned out to be 100%.

For SVALWNNAV, in experiment [1], the “Normalized T1D prevalence” value worked out at 1.13 and the “% Presence in T1D samples” value turned out to be 87.5%.

Take VLQASSISA: in experiment [1], the “Normalized T1D prevalence” value is 3.19 and the “% Presence in T1D samples” value came out at 100%.

On to TLVTLCHYA, for which, in experiment [1], the “Normalized T1D prevalence” value turned out to be 1.94 and the “% Presence in T1D samples” value was found to be 87.5%.

Consider FLPYDHARI, for which, in experiment [1], the “Normalized T1D prevalence” value worked out at 2.94 and the “% Presence in T1D samples” value worked out at 87.5%.

Regarding KMAKDWKTV, in experiment [1], the “Normalized T1D prevalence” value is listed as 2.38 and the “% Presence in T1D samples” value was 100%. Moreover, in the experiment on recombinant TCRs (rTCRs) (TCR_12, source PBMC), the “Mean % CD69+ T cells” value is reported as 18.65%.
